This is an account of results in patent publication EP0951284B1, “[…] DERIVATIVES” (priority 1996, dated 1998).

For data set [1], the target named is T1, Human erythrocyte acetylcholinesterase (Homo sapiens, UniProt P22303).
T1 construct: Human erythrocyte acetylcholinesterase (type XIII, Sigma Israel); purchased Sigma Israel type XIII; host or cells: human erythrocytes
Kind of data set: In vitro measurement of acetylcholinesterase (AChE) inhibition (Ellman method). It is filed as biochemical. The conditions noted are these: at time of peak activity, incubation 15 to 60 minutes at 37°C. As for the experimental part:
Human erythrocyte acetylcholinesterase (type XIII, Sigma Israel), was prepared in a stock solution of 1U/ml, containing Triton (1%) and bovine serum albumin (0.05%) in phosphate buffer (pH 8). The enzyme (0.05U) was incubated with 3-5 different concentrations of test compound (in triplicate) for periods of from 15 to 60 minutes at 37°C. […] The percentage inhibition of AChE by each concentration of drug is calculated by comparison with that of enzyme in the absence of drug.

The next data set has as its target T2, whole brain AChE (Mus musculus, UniProt P21836).
T2 construct: the brains rapidly removed (minus cerebellum), weighed and homogenized in 0.1M phosphate buffer pH 8.0; from tissue; host or cells: mouse brain (minus cerebellum) homogenate supernatant
T2 sequence (P21836 32-614): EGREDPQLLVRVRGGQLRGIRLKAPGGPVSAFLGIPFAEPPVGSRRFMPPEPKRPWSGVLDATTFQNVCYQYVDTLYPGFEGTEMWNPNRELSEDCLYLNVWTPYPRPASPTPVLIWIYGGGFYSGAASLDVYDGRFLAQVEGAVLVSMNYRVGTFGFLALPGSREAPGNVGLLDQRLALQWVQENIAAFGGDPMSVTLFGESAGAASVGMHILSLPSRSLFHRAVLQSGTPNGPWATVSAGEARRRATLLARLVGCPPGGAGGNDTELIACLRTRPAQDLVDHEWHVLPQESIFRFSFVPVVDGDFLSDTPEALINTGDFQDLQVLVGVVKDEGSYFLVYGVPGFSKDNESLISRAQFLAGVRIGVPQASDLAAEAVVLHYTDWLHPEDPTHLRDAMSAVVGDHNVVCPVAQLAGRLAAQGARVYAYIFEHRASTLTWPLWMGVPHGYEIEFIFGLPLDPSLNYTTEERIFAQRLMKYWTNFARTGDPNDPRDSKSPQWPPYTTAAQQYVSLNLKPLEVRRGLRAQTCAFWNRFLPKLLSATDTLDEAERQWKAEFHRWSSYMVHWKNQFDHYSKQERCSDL
Kind of data set: Ex vivo measurement of brain AChE inhibition after sub-cutaneous administration. It is filed as in vivo, mice. The conditions noted are these: for ED50: sc, sub-cutaneous, mouse whole brain, at peak of activity, read-out: AChE Inhibition Ex vivo ED50 (AC). As for the experimental part:
Test drugs or saline were administered sub-cutaneously to male mice (Sabra strain, 28-35g). At least 4-5 mice were used per dose and a minimum of 3 doses per drug were tested. The mice were sacrificed 15, 30, 60, 70, 90, 120 or 180 minutes after drug administration, the brains rapidly removed (minus cerebellum), weighed and homogenized in 0.1M phosphate buffer pH 8.0, containing Triton (1mg/100g tissue) and centrifuged to remove cell debris. Aliquots (25 µl) of the supernatant were then incubated with acetylthiocholine and DTNB. AChE activity measured as described above. The % inhibition of whole brain AChE by each dose of drug was calculated by comparison with enzyme activity from 3 saline treated control mice run at the same time.

Data set [2] in a line: Acute toxicity in mice (sub-cutaneous, lethality within 6 hours). The conditions noted are these: mouse, in vivo, sc; for LD50 at 6 h: sub-cutaneous, mice, within 6 hours; for selectivity ratio: LD50 divided by ED50 (acetylcholine esterase ex vivo), read-out: Therapeutic Ratio (LD/AC). How it is done:
Drugs were administered sub-cutaneously in at least 3 doses, to a minimum of 10 mice per dose. […] Therapeutic Ratio was calculated as LD50 divided by ED50(acetylcholine esterase ex vivo).

Another data set has as its system MAO-B. Kind of data set: Inhibition of MAO activity ex vivo (brain tissue), PEA substrate. It is filed as in vivo, mice. As to conditions: mouse brain tissue. How it is done:
(§1) Male Sabra mice, weighing 45-50g were injected with test compound solutions (prepared in 0.9% saline). Each dose was administered to two or three mice. The mice were sacrificed two hours after drug administration or at a time corresponding to the peak AChE inhibition time (see Table 6). The brain and liver were rapidly dissected and stored in appropriate vials on ice. The tissues were weighed, diluted to 1/20 in sucrose 0.3M and stored at -20°C before performance of the MAO assay described above. The results given in Table 6 relate to measurements made on brain tissue only.

Data set [3] deals with MAO-A. Kind of data set: Inhibition of MAO activity ex vivo (brain tissue), 5-HT substrate. It is filed as in vivo, mice. The conditions noted are these: mouse brain tissue. As for the experimental part:
as §1

Data set [4] addresses T3, MAO-A (Rattus norvegicus, UniProt P21396).
T3 sequence (P21396 1-526): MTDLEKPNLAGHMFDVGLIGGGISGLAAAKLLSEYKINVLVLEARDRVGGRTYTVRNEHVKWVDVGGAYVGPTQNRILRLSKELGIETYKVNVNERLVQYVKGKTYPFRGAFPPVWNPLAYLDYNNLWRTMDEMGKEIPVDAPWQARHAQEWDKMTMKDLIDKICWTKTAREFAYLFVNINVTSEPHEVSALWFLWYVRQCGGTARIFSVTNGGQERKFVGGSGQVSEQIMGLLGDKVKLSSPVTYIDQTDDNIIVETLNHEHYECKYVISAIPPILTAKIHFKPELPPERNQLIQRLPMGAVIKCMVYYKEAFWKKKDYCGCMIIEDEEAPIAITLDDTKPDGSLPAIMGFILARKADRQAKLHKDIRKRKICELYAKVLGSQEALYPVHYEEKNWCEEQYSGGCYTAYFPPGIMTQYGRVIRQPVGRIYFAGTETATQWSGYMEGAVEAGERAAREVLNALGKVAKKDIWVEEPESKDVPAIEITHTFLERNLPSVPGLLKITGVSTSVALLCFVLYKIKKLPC
Kind of data set: Inhibition of MAO activity in vitro, rat brain homogenate, 5-HT substrate.
Description: The MAO enzyme source was a homogenate of rat brain in 0.3M sucrose, which was centrifuged at 600G for 15 minutes. The supernatant was diluted appropriately in 0.05M phosphate buffer, and pre-incubated with serial dilutions of test compounds for 20 minutes at 37°C. ^14C-Labeled substrates (2-phenylethylamine, hereinafter PEA; 5-hydroxytryptamine, hereinafter 5-HT) were then added, and the incubation continued for a further 20 minutes (PEA), or 30-45 minutes (5-HT). Substrate concentrations used were 50µM (PEA) and 1mM (5-HT). In the case of PEA, enzyme concentration was chosen so that not more than 10% of the substrate was metabolized during the course of the reaction. The deaminated products were extracted into toluene-ethyl acetate (1:1, v/v) containing 0.6% (w/v) 2,5-diphenyloxazole prior to determination by liquid scintillation counting. Radioactivity in the eluate indicates the production of neutral and acidic metabolites formed as a result of MAO activity. Activity of MAO in the sample was expressed as a percentage of control activity in the absence of inhibitors after subtraction of appropriate blank values The activity determined using PEA as substrate is referred to as MAO-B, and that determined using 5-HT as MAO-A.

The next data set relates to mice. Kind of data set: Survival time of mice in hypobaric hypoxic episode. It is filed as in vivo. As to conditions: 30 min before hypoxia. The text has this:
The model is based on that described in Nakanishi, M. et al. Life Sci. (1973) 13: 467; Oshiro, et al., J. Med. Chem. (1991) 34: 2004-2013; and US Patent 4,788,130.
A 12 liter desiccator (desiccator A) and a 2.5 liter desiccator (desiccator B) were separately connected to a vacuum pump. Desiccator B was disconnected and allowed to equilibrate with room air whilst desiccator A was evacuated to a pressure of 100mmHg. Four male ICR albino mice (22-28g) were placed in desiccator B. Desiccator B was then closed to room air and connected to desiccator A. The pressure inside desiccator B was monitored using a mercury manometer and at the point the pressure in desiccator B reached 200mmHg (usually within 14 seconds), the two desiccators were disconnected from the vacuum pump and the pump switched off. The survival time from the moment of induction of hypoxia to the time of cessation of respiration was recorded. for each mouse for a maximum of 15 minutes after which time room air was reintroduced to desiccator B. Survivors were monitored for signs of lethargy or vitality.
Effect of drug treatment was assessed as the percent of the survival time of the drug treated group with respect to the saline injected or vehicle injected control group. Control groups were run twice, before and after each experimental group and consisted of 8 mice in groups of 4 mice to ensure a constant residual volume of oxygen in all tests. The effect of each dose of test drug was determined in duplicate i.e. two groups of 4 mice.
Positive reference drugs were sodium pentobarbital at a dose of 40 mg/kg, and diazepam 10 mg/kg given 0.5h prior to hypoxia, physostigmine 0.2 and 0.4 mg/kg and neostigmine 0.2 mg/kg given sc 30 min before hypoxia. Methyl atropine 1 mg/kg was given sc. 10 min. before physostigmine.
The volume of injection was 0.2-0.3 mL per mouse (10 mL/kg). The initial dose was about one third of the reported LD50 for acetylcholine esterase inhibition. If no protection could be obtained, the dose was further increased to the nearest non-toxic dose. In case of protection, the dose was further reduced in an attempt to locate the "protective" dose range.

pIC50: −log10 of the molar value. Counter-ions that a name gives are not always drawn. Like-named read-outs stand apart in the source and are kept apart here.

T1 sequence (P22303 32-617 isoform P22303-2 limits assumed): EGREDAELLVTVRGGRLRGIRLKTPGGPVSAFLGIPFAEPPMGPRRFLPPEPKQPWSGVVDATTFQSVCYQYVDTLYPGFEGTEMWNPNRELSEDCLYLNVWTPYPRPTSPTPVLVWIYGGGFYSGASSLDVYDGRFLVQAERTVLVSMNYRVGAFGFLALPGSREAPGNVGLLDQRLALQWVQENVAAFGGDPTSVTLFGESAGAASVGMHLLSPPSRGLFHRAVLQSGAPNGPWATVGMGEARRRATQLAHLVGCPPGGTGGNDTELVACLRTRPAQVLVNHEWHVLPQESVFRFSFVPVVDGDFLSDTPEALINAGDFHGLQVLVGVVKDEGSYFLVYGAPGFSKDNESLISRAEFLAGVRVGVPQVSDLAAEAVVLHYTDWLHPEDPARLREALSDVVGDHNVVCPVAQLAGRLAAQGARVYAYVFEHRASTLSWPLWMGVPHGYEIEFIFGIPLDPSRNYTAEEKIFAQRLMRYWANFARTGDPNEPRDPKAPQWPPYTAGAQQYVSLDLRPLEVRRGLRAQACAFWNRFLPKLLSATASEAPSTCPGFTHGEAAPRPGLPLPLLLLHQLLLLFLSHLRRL

Turning to `C#CCN(C)C(C)Cc1cccc(OC(=O)N(C)CCCCCC)c1` (racemic) [Compound 27, (rac)-3-(N-methyl,N-hexyl-carbamyloxy)-α-methyl-N'-methyl, N'-propargyl phenethylamine mesylate], the pIC50 (commonly −log10 of the IC50, conventionally taken in molar units) is 5.51 in data set [1] and 4.70 at MAO-A [4]. The ED50 – broadly, the dose that gives a 50% effect, or the effect in half of the subjects – on whole brain AChE is > 50 µmol/kg. For the same molecule, the LD50 (as a rule, the dose expected to kill half of the subjects tested) at 6 h in data set [2] is > 1000 µmol/kg. Moreover, the “MAO-B Inhibition Ex vivo ED50” value with MAO-B came out at 3.4 µmol/kg. Further, in the data set on MAO-A [3], the “MAO-A Inhibition Ex vivo ED50” value was >430 µmol/kg.
Consider `C#CCN(C)C(C)Cc1cccc(OC(=O)N(C)C2CCCCC2)c1` (racemic) [Compound 28, (rac)-3-(N-methyl,N-cyclohexyl-carbamyloxy)-α-methyl-N'-methyl, N'-propargyl phenethylamine HCl], for which the pIC50 in data set [1] was 4.94. Further, the “Time to peak activity t” value on whole brain AChE (AChE inhibition) is reported as 60 min. On whole brain AChE, the ED50 was 21 µmol/kg. Besides, in data set [2], the selectivity ratio was > 47 and the LD50 at 6 h was 2000 µmol/kg. Also, the “MAO-B Inhibition Ex vivo ED50” value in the data set with MAO-B was found to be 1.75 µmol/kg. Moreover, the “MAO-A Inhibition Ex vivo ED50” value in the data set on MAO-A [3] came out at 109 µmol/kg. Besides, the pIC50 on MAO-A [4] was 5.77.
In turn, `C#CCN(C)C(C)Cc1cccc(OC(=O)N(C)CCC)c1` (racemic) [Compound 35] had a negative-log IC50 (pIC50) in data set [1] of 4.30. Moreover, at whole brain AChE, the ED50 is > 200 µmol/kg.
As for `CN(C)C(=O)Oc1cccc(CCN)c1` [Compound 1], the values for the pIC50 (in data set [1]; against MAO-A [4]) were 6.51 and 4.00, respectively.
For `CNCCc1cccc(OC(=O)N(C)C)c1` [Compound 3], the pIC50 in data set [1] is 6.51. On whole brain AChE (AChE inhibition), the “Time to peak activity t” value is on record as 10 min and the “Time to return to 50% of peak t” value came to 30 min. Besides, the ED50 on whole brain AChE was found to be 39.2 µmol/kg. In addition, in data set [2], the selectivity ratio was 1.5 and the LD50 at 6 h is 57.7 µmol/kg. On MAO-A [4], this molecule showed a pIC50 of 4.30.
In the case of `CCN(C)C(=O)Oc1cccc(CCN)c1` [Compound 4], the pIC50 in data set [1] was 4.32; against MAO-A [4] it was 3.70.
`CCN(C)C(=O)Oc1cccc(CCNC)c1` [Compound 5]: the pIC50 was 4.68 in data set [1] and 4.60 on MAO-A [4]. Further, the “MAO-B Inhibition Ex vivo ED50” value in the data set with MAO-B is recorded as >>160 µmoles/kg. For the same molecule, the “MAO-A Inhibition Ex vivo ED50” value with MAO-A [3] is recorded as >>160 µmoles/kg.
Molecule `CN(C)CCc1cccc(OC(=O)N(C)C)c1` [Compound 10] gave a negative-log IC50 (pIC50) in data set [1] of 6.70. For the same molecule, the “Time to peak activity t” value on whole brain AChE (AChE inhibition) is 15 to 30 min. On whole brain AChE, the ED50 was 2 µmol/kg. Further, in data set [2], the selectivity ratio was found to be 8 and the LD50 at 6 h turned out to be 16 µmol/kg. The pIC50 at MAO-A [4] (read-out: MAO-A Inhibition In vitro IC50, rat brain homogenate, 5-HT 1mM) was 4.29.
`C#CC(C)NCCc1cccc(OC(=O)N(C)C)c1` (stereo not drawn) [Compound 29]: the pIC50 in data set [1] is 6.82. At whole brain AChE, the ED50 came to 2.5 µmol/kg. Further, the “MAO-B Inhibition Ex vivo ED50” value in the data set on MAO-B was >>12.5 µmoles/kg. Besides, in the data set on MAO-A [3], the “MAO-A Inhibition Ex vivo ED50” value is given as >>12.5 µmoles/kg.
In data set [1], `C#CC(C)NCCc1cccc(OC(=O)N(C)CC)c1` (stereo not drawn) [Compound 30] showed a pIC50 of 4.85. Besides, the ED50 on whole brain AChE was 45 µmol/kg. In addition, the “MAO-B Inhibition Ex vivo ED50” value in the data set on MAO-B is on record as >>270 µmoles/kg. Further, in the data set with MAO-A [3], the “MAO-A Inhibition Ex vivo ED50” value is listed as >>270 µmoles/kg.
As to `C#CCNC(C)Cc1cccc(OC(=O)N(C)C2CCCCC2)c1` (stereo not drawn) [Compound 36], in data set [1], the pIC50 is 5.47. In addition, the ED50 at whole brain AChE was > 50 µmol/kg.
Take `C#CCN(C)[C@@H](C)Cc1cccc(OC(=O)N(C)CCCCCC)c1` [Compound 38, (S)-3-(N-methyl, N-hexyl-carbamyloxy)-α-methyl-N'-methyl,N'-propargyl phenethylamine ethanesulfonate]: in data set [1], the pIC50 is 5.51. Moreover, the 50% effective dose (ED50) on whole brain AChE is > 50 µmol/kg.
For the molecule `CN1C(=O)CN=C(c2ccccc2)c2cc(Cl)ccc21` [Diazepam, diazepam, reference compound], in the data set with mice (10 mg/kg), the “Protection (% of control)” value was 316±78 % of control.
With `CCCC(C)C1(CC)C(=O)NC(=O)NC1=O` (stereo not drawn) [Nembutal, sodium pentobarbital, reference compound], the “Protection (% of control)” value in the data set with mice (40 mg/kg) is given as 253±200 % of control.
